{"source": "patent US11692164B2", "about": "“Antibiotic-free compositions for the prevention or control of coccidiosis” (Huvepharma Inc., priority 2017, dated 2023)", "key": {"[1]": {"tested_on": "E. maxima oocysts", "assay": "Effect of disinfectants at minimal inhibitory concentration on E. maxima oocyst viability", "assay_type": "cell-based, Eimeria maxima", "experimental": "(§1) In this example, additional disinfectant compounds were tested for their ability to inhibit microbial growth in Eimeria oocyst samples as compared to formalin. E. maxima oocysts were spiked with B. subtilis and P. chrysogenum, and the minimal inhibitory concentrations of several disinfectants were determined. The disinfectants were then added to E. maxima oocysts and the oocysts were stored at 2-7° C. for 6 months. The oocysts were assayed for viability and the decrease in viability due to the disinfectant was calculated by comparison to the same lot of oocysts stored in 0.5×PBS only. Exemplary results are summarized below in Table 5."}, "[2]": {"tested_on": "B. subtilis and P. chrysogenum", "assay": "Minimal inhibitory concentration of disinfectants in E. maxima oocysts spiked with B. subtilis and P. chrysogenum", "assay_type": "cell-based, Bacillus subtilis and Penicillium chrysogenum", "experimental": "as §1"}, "[3]": {"tested_on": "Eimeria maxima oocysts", "details": "0.675% formalin; stored 2 weeks at 2-7° C.; compared to same lot of oocysts stored with 0% formalin"}, "[4]": {"tested_on": "E. maxima oocysts", "details": "storage at 2-7° C.", "experimental": "(§2) The effect of formalin on oocyst viability was investigated using oocyst lots of each Eimeria species (E. acervulina, E. maxima and E. tenella) and on vaccine. Viability was determined initially prior to the addition of formalin, and then after 1 year of storage at 2-7° C."}, "[5]": {"tested_on": "E. tenella oocysts", "details": "storage at 2-7° C.", "experimental": "as §2"}, "[6]": {"tested_on": "E. acervulina oocysts", "details": "storage at 2-7° C.", "experimental": "as §2"}, "[7]": {"tested_on": "Vaccine Serial (E. acervulina, E. maxima and E. tenella oocysts)", "details": "storage at 2-7° C."}, "[8]": {"tested_on": "Eimeria acervulina oocysts", "details": "0.1% formalin; stored 4 months at 2-7° C.; compared to same lot of oocysts stored with 0% formalin"}}, "note": "Read-outs that look alike come from different tables or passages of the source.", "data": [{"smiles": "Cc1ccc(C(C)C)c(O)c1", "note": "[Thymol]", "values": [{"measurement": "Decrease in Viability", "setting": "[1]", "value": 15, "unit": "%"}, {"measurement": "Minimal Inhibitory Concentration", "setting": "[2]", "value": 0.0063, "unit": "%"}]}, {"smiles": "C=O", "note": "[Formalin, formaldehyde]", "values": [{"measurement": "Decrease in Viability", "setting": "[3]", "value": 49, "unit": "%"}, {"measurement": "% Viable Oocysts after Storage for 12 Months, E. maxima 12 mo", "setting": "[4]; formalin concentration 0.010", "value": 47, "unit": "%"}, {"measurement": "% Viable Oocysts after Storage for 12 Months, E. maxima 12 mo", "setting": "[4]; formalin concentration 0.025", "value": 41, "unit": "%"}, {"measurement": "% Viable Oocysts after Storage for 12 Months, E. tenella 12 mo", "setting": "[5]; formalin concentration 0.010", "value": 95, "unit": "%"}, {"measurement": "% Viable Oocysts after Storage for 12 Months, E. tenella 12 mo", "setting": "[5]; formalin concentration 0.025", "value": 86, "unit": "%"}, {"measurement": "% Viable Oocysts after Storage for 12 Months, E. acervulina 12 mo", "setting": "[6]; formalin concentration 0.010", "value": 59, "unit": "%"}, {"measurement": "% Viable Oocysts after Storage for 12 Months, E. acervulina 12 mo", "setting": "[6]; formalin concentration 0.025", "value": 27, "unit": "%"}, {"measurement": "% Viable Oocysts after Storage for 12 Months, Vaccine Serial 12 mo", "setting": "[7]; formalin concentration 0.0028", "value": 83, "unit": "%"}, {"measurement": "% Viable Oocysts after Storage for 12 Months, Vaccine Serial 12 mo", "setting": "[7]; formalin concentration 0.0071", "value": 84, "unit": "%"}, {"measurement": "Decrease in Viability", "setting": "[8]", "value": 37, "unit": "%"}]}, {"smiles": "CC(C)=CCCC(C)=CC=O", "note": "[Citral]", "values": [{"measurement": "Decrease in Viability", "setting": "[1]; disinfectant at minimal inhibitory concentration, 6 months of storage at 2-7 C., compared to same lot stored with 0% disinfectant (0.5×PBS only)", "value": 24, "unit": "%"}, {"measurement": "Minimal Inhibitory Concentration", "setting": "[2]", "value": 0.0125, "unit": "%"}]}]}
